SMILES strings stand for the structures. pIC50: −log10 of the molar value.

For the first assay, the target named is Escherichia coli DNA gyrase A/B tetramer (Escherichia coli (strain K12), UniProt P0AES4+P0AES6). As to the kind of experiment: DNA gyrase supercoiling activity fluorescence polarisation assay. The format is biochemical.
Settings: not given
In short, it runs like this: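 Supercoiling reactions quenched with 40 nM 5′-BODIPY-FL triplex-forming oligonucleotide probe in pH 3.5 NaCl/sodium acetate buffer; after 60 min, fluorescence anisotropy read (ex 485/em 535 nm). IC50 by nonlinear regression, normalised to 0.8% DMSO (100% activity) and 5 μM ciprofloxacin (0% activity).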
Background: Polarisation of emitted light reports the rotation of a fluorescent probe.
A word on the pIC50: it is the negative decadic logarithm of the IC50, by convention in mol/L. `C[C@@H]1CN2c3c(cc4c(C(=O)N5CC(C#N)C5)noc4c3F)CC3(C(=O)NC(=O)NC3=O)[C@H]2[C@H](C)O1` (relative stereo) [Example 164, 1-((2R,4 S,4 aS)-rel-11-fluoro-2,4-dimethyl-2′,4′,6′-trioxo-2,2′,3′,4,4a,4′,6,6′-octahydro-1H,1′H-spiro[isoxazolo[4,5-g][1,4]oxazino[4,3-a]quinoline-5,5′-pyrimidine]-8-ylcarbonyl)azetidine-3-carbonitrile]: the pIC50 was 5.92.

The assay is the same for the next values; noted with them: 5 nM enzyme, relaxed plasmid, 0.3 mM ATP, ambient temperature; read-out: E. coli DNA gyrase supercoiling IC50.
As to `CC(C)NC(=O)c1noc2c(F)c3c(cc12)CC1(C(=O)NC(=O)NC1=O)[C@H]1[C@H](C)O[C@H](C)CN31` (relative stereo) [Example 147, (2R,4S,4aS)-rel-11-fluoro-N-isopropyl-2,4-dimethyl-2′,4′,6′-trioxo-2,2′,3′,4,4a,4′,6,6′-octahydro-1H,1′H-spiro[isoxazolo[4,5-g][1,4]oxazino[4,3-a]quinoline-5,5′-pyrimidine]-8-carboxamide], the pIC50 was 5.41.

Regarding `C[C@@H]1CN2c3c(cc4c(-c5ncccn5)noc4c3F)CC3(C(=O)NC(=O)NC3=O)[C@H]2[C@H](C)O1` (relative stereo) [Example 148, (2R,4S,4aS)-rel-11-fluoro-2,4-dimethyl-8-(pyrimidin-2-yl)-1,2,4,4a-tetrahydro-2′H,6H-spiro[1,4-oxazino[4,3-a][1,2]oxazolo[4,5-g]quinoline-5,5′-pyrimidine]-2′,4′,6′(1′H,3′H)-trione], the negative-log IC50 (pIC50) was 6.05.

Turning to `Cc1noc2c(F)c3c(cc12)CC1(C(=O)NC(=O)NC1=O)[C@H]1[C@H](C)O[C@H](C(F)(F)F)CN31` (relative stereo) [Example 149, (2S,4S,4aS)-rel-11-fluoro-4,8-dimethyl-2-(trifluoromethyl)-1,2,4,4a-tetrahydro-2′H,6H-spiro[isoxazolo[4,5-g][1,4]oxazino[4,3-a]quinoline-5,5′-pyrimidine]-2′,4′,6′(1′H,3′H)-trione], the pIC50 is 5.36.

Turning to `C[C@@H]1CN2c3c(cc4c(C(=O)NC5CC5)noc4c3F)CC3(C(=O)NC(=O)NC3=O)[C@H]2[C@H](C)O1` (relative stereo) [Example 150, (2R,4S,4aS)-rel-N-cyclopropyl-11-fluoro-2,4-dimethyl-2′,4′,6′-trioxo-2,2′,3′,4,4a,4′,6,6′-octahydro-1H,1′H-spiro[isoxazolo[4,5-g][1,4]oxazino[4,3-a]quinoline-5,5′-pyrimidine]-8-carboxamide], the negative logarithm of the IC50 (pIC50) is 5.89.

For `COC1CCN(C(=O)c2noc3c(F)c4c(cc23)CC2(C(=O)NC(=O)NC2=O)[C@H]2[C@H](C)O[C@H](C)CN42)CC1` (relative stereo) [Example 151, (2R,4S,4aS)-rel-11-fluoro-8-(4-methoxypiperidine-1-carbonyl)-2,4-dimethyl-2,4,4a,6-tetrahydro-1H,1′H-spiro[isoxazolo[4,5-g][1,4]oxazino[4,3-a]quinoline-5,5′-pyrimidine]-2′,4′,6′(3′H)-trione], the pIC50 was 5.26.

Consider `C[C@@H]1CN2c3c(cc4c(C(=O)NCC5CC5)noc4c3F)CC3(C(=O)NC(=O)NC3=O)[C@H]2[C@H](C)O1` (relative stereo) [Example 152, (2R,4S,4aS)-rel-N-(cyclopropylmethyl)-11-fluoro-2,4-dimethyl-2′,4′,6′-trioxo-2,2′,3′,4,4a,4′,6,6′-octahydro-1H,1′H-spiro[isoxazolo[4,5-g][1,4]oxazino[4,3-a]quinoline-5,5′-pyrimidine]-8-carboxamide], for which the pIC50 is 5.68.

In the case of `C[C@@H]1CN2c3c(cc4c(C(=O)N5CCCCO5)noc4c3F)CC3(C(=O)NC(=O)NC3=O)[C@H]2[C@H](C)O1` (relative stereo) [Example 153, (2R,4S,4aS)-rel-11-fluoro-2,4-dimethyl-8-(1,2-oxazinan-2-ylcarbonyl)-1,2,4,4a-tetrahydro-2′H,6H-spiro[isoxazolo[4,5-g][1,4]oxazino[4,3-a]quinoline-5,5′-pyrimidine]-2′,4′,6′(1′H,3′H)-trione], the negative logarithm of the IC50 (pIC50) was 5.43.

As for `C[C@@H]1CN2c3c(cc4c(C(=O)NCc5cccs5)noc4c3F)CC3(C(=O)NC(=O)NC3=O)[C@H]2[C@H](C)O1` (relative stereo) [Example 154, (2R,4S,4aS)-rel-11-fluoro-2,4-dimethyl-2′,4′,6′-trioxo-N-(thiophen-2-ylmethyl)-2,2′,3′,4,4a,4′,6,6′-octahydro-1H,1′H-spiro[isoxazolo[4,5-g][1,4]oxazino[4,3-a]quinoline-5,5′-pyrimidine]-8-carboxamide], the pIC50 is 5.82.

For the molecule `C[C@@H]1CN2c3c(cc4c(C(=O)NCc5ccncc5)noc4c3F)CC3(C(=O)NC(=O)NC3=O)[C@H]2[C@H](C)O1` (relative stereo) [Example 155, (2R,4S,4aS)-rel-11-fluoro-2,4-dimethyl-2′,4′,6′-trioxo-N-(pyridin-4-ylmethyl)-2,2′,3′,4,4a,4′,6,6′-octahydro-1H,1′H-spiro[isoxazolo[4,5-g][1,4]oxazino[4,3-a]quinoline-5,5′-pyrimidine]-8-carboxamide], the negative-log IC50 (pIC50) was 5.92.

For `C[C@@H]1CN2c3c(cc4c(C(=O)NCC5CCCCC5)noc4c3F)CC3(C(=O)NC(=O)NC3=O)[C@H]2[C@H](C)O1` (relative stereo) [Example 156, (2R,4S,4aS)-rel-N-(cyclohexylmethyl)-11-fluoro-2,4-dimethyl-2′,4′,6′-trioxo-2,2′,3′,4,4a,4′,6,6′-octahydro-1H,1′H-spiro[isoxazolo[4,5-g][1,4]oxazino[4,3-a]quinoline-5,5′-pyrimidine]-8-carboxamide], the negative-log IC50 (pIC50) is 5.82.

For the molecule `C[C@@H]1CN2c3c(cc4c(C(=O)N5CCC(F)(F)CC5)noc4c3F)CC3(C(=O)NC(=O)NC3=O)[C@H]2[C@H](C)O1` (relative stereo) [Example 157, (2R,4S,4aS)-rel-8-(4,4-difluoropiperidine-1-carbonyl)-11-fluoro-2,4-dimethyl-2,4,4a,6-tetrahydro-1H,1′H-spiro[isoxazolo[4,5-g][1,4]oxazino[4,3-a]quinoline-5,5′-pyrimidine]-2′,4′,6′(3′H)-trione], the pIC50 was 5.19.

In the case of `C[C@@H]1CN2c3c(cc4c(C(=O)NC5CN(C)C5)noc4c3F)CC3(C(=O)NC(=O)NC3=O)[C@H]2[C@H](C)O1` (relative stereo) [Example 159, (2R,4S,4aS)-rel-11-fluoro-2,4-dimethyl-N-(1-methylazetidin-3-yl)-2′,4′,6′-trioxo-2,2′,3′,4,4a,4′,6,6′-octahydro-1H,1′H-spiro[isoxazolo[4,5-g][1,4]oxazino[4,3-a]quinoline-5,5′-pyrimidine]-8-carboxamide], the pIC50 was 5.85.

For the molecule `CC(=O)NC1CN(C(=O)c2noc3c(F)c4c(cc23)CC2(C(=O)NC(=O)NC2=O)[C@H]2[C@H](C)O[C@H](C)CN42)C1` (relative stereo) [Example 160, N-(1-((2R,4S,4aS)-rel-11-fluoro-2,4-dimethyl-2′,4′,6′-trioxo-2,2′,3′,4,4a,4′,6,6′-octahydro-1H,1′H-spiro[isoxazolo[4,5-g][1,4]oxazino[4,3-a]quinoline-5,5′-pyrimidine]-8-ylcarbonyl)azetidin-3-yl)acetamide], the pIC50 was 6.00.

In the case of `C[C@@H]1CN2c3c(cc4c(C(=O)NCc5ccn(C)n5)noc4c3F)CC3(C(=O)NC(=O)NC3=O)[C@H]2[C@H](C)O1` (relative stereo) [Example 161, (2R,4S,4aS)-rel-11-fluoro-2,4-dimethyl-N-((1-methyl-1H-pyrazol-3-yl)methyl)-2′,4′,6′-trioxo-2,2′,3′,4,4a,4′,6,6′-octahydro-1H,1′H-spiro[isoxazolo[4,5-g][1,4]oxazino[4,3-a]quinoline-5,5′-pyrimidine]-8-carboxamide], the pIC50 was 5.89.

`COCC(COC)(COC)NC(=O)c1noc2c(F)c3c(cc12)CC1(C(=O)NC(=O)NC1=O)[C@H]1[C@H](C)O[C@H](C)CN31` (relative stereo) [Example 163, (2R,4S,4aS)-rel-N-(1,3-dimethoxy-2-(methoxymethyl)propan-2-yl)-11-fluoro-2,4-dimethyl-2′,4′,6′-trioxo-2,2′,3′,4,4a,4′,6,6′-octahydro-1H,1′H-spiro[isoxazolo[4,5-g][1,4]oxazino[4,3-a]quinoline-5,5′-pyrimidine]-8-carboxamide]: the pIC50 is 4.77.

Turning to `C[C@@H]1CN2c3c(cc4c(-c5cnccn5)noc4c3F)CC3(C(=O)NC(=O)NC3=O)[C@H]2[C@H](C)O1` (relative stereo) [Example 165, (2R,4S,4aS)-rel-11-fluoro-2,4-dimethyl-8-(pyrazin-2-yl)-1,2,4,4a-tetrahydro-2′H,6H-spiro[1,4-oxazino[4,3-a][1,2]oxazolo[4,5-g]quinoline-5,5′-pyrimidine]-2′,4′,6′(1′H,3′H)-trione], the negative logarithm of the IC50 (pIC50) is 6.40.

As to `C[C@@H]1CN2c3c(cc4c(-c5cncc(N(C)C)n5)noc4c3F)CC3(C(=O)NC(=O)NC3=O)[C@H]2[C@H](C)O1` (relative stereo) [Example 177, (2R,4S,4aS)-rel-8-(6-(dimethylamino)pyrazin-2-yl)-11-fluoro-2,4-dimethyl-2,4,4a,6-tetrahydro-1H,1′H-spiro[isoxazolo[4,5-g][1,4]oxazino[4,3-a]quinoline-5,5′-pyrimidine]-2′,4′,6′(3′H)-trione], the negative-log IC50 (pIC50) was 5.30.

On to `C[C@@H]1CN2c3c(cc4c(N5CCNCC5)noc4c3F)CC3(C(=O)NC(=O)NC3=O)[C@H]2[C@H](C)O1` (relative stereo) [Example 179, (2R,4S,4aS)-rel-11-fluoro-2,4-dimethyl-8-(piperazin-1-yl)-1,2,4,4a-tetrahydro-2′H,6H-spiro[isoxazolo[4,5-g][1,4]oxazino[4,3-a]quinoline-5,5′-pyrimidine]-2′,4′,6′(1′H,3′H)-trione], for which the pIC50 was 5.70.

Turning to `C[C@@H]1CN2c3c(cc4c([S+](C)[O-])noc4c3F)CC3(C(=O)NC(=O)NC3=O)[C@H]2[C@H](C)O1` (relative stereo) [Example 181, (2R,4S,4aS)-rel-11-fluoro-2,4-dimethyl-8-(methylsulfinyl)-1,2,4,4a-tetrahydro-2′H,6H-spiro[1,4-oxazino[4,3-a][1,2]oxazolo[4,5-g]quinoline-5,5′-pyrimidine]-2′,4′,6′(1′H,3′H)-trione], the pIC50 is 5.48.

(Values after patent US9040528B2, “Chemical compounds 542” (AstraZeneca AB, priority 2008, dated 2015).)
